# Laboratory results taken from the Kinase Knowledgebase extract (Sharma et al. 2016).
# Target: CDK2 (UniProt P24941)
# Assay: Enzyme Assay
row,Ki,Structure (SMILES)
1,1 to 20 µM,CC(=O)Nc1ccc(Sc2nc(Nc3cc(C)n[nH]3)c3ccccc3n2)cc1
2,< 1 µM,CC(=O)Nc1ccc(Sc2nc(Nc3cc(C4CC4)n[nH]3)c3ccccc3n2)cc1
3,1 to 20 µM,CCCS(=O)(=O)Nc1ccc(Sc2nc(Nc3cc(C)n[nH]3)c3ccccc3n2)cc1
4,< 1 µM,OCCc1ccc(Nc2nc(Nc3cc(C4CC4)n[nH]3)c3ccccc3n2)cc1
5,< 1 µM,c1ccc2c(Nc3cc(C4CC4)n[nH]3)nc(Nc3ccc4ncsc4c3)nc2c1
6,< 1 µM,N#CCc1ccc(Nc2nc(Nc3cc(C4CC4)n[nH]3)cc(-c3ccccc3)n2)cc1
7,< 1 µM,CCc1ccc(Nc2nc(Nc3cc(C4CC4)n[nH]3)c3ccccc3n2)cc1
8,< 1 µM,Cc1cc(Nc2nc(Nc3ccc(CC#N)cc3)nc3ccccc23)[nH]n1
9,1 to 20 µM,COc1ccc2c(Nc3cc(C)n[nH]3)nc(Sc3ccc(NC(C)=O)cc3)nc2c1
10,< 1 µM,Cc1cccc(Sc2nc(Nc3cc(C)n[nH]3)c3ccccc3n2)c1
11,1 to 20 µM,CC(=O)Nc1ccc(Sc2nc(Nc3cc(C)n[nH]3)c3cccc(O)c3n2)cc1
12,1 to 20 µM,COc1cccc2c(Nc3cc(C)n[nH]3)nc(Sc3ccc(NC(C)=O)cc3)nc12
13,< 1 µM,Cc1cc(Nc2nc(Nc3ccc4ncsc4c3)nc3ccccc23)[nH]n1
